Data published in US20150359913A1, “TETRAZINES/TRANS-CYCLOOCTENES IN SOLID PHASE SYNTHESIS OF LABELED PEPTIDES” (MEMORIAL SLOAN-KETTERING CANCER CENTER, priority 2013, published 2015).
Blank lines part the entries; values can stand above or below the compound they belong to.

Tests used:
[1] = in vivo stability of the radioligand in the blood
Description: (§1) The stability of the radioligand was assayed in vitro by incubation in human serum at 37° C. and subsequent HPLC analysis. The ^64Cu-Tz-Bn-NOTA remained relatively stable after 1 h, with 93.0%±2.5% intact. […] In addition, in vivo stability experiments were performed, and these produced similar results, although some acceleration in decomposition can be noted: 77%±3% of the ^64Cu-Tz-Bn-NOTA is intact in the blood after 60 min, followed by 47%±2% after 2 h and 22%±3% after 6 h. Although greater stability may be preferable, the speed of the cycloaddition reaction and the rapid pharmacokinetics of the radioligand led us to believe it unlikely that poor serum stability at later time points would limit the system.

[2] = system: subcutaneous SW1222 xenografts; assay: pre-targeted biodistribution: A33-TCO, 24 h later ^64Cu-Tz-Bn-NOTA; type: in vivo, mice; conditions: for Biodistribution: Blood / Biodistribution: Bone / Biodistribution: Feces / Biodistribution: Heart / Biodistribution: Kidney / Biodistribution: Large intestine / Biodistribution: Liver / Biodistribution: Lung / Biodistribution: Muscle / Biodistribution: Skin / Biodistribution: Small intestine / Biodistribution: Spleen / Biodistribution: Stomach / Biodistribution: Tumor: A33-TCO (100 μg) 24 h before ^64Cu-Tz-Bn-NOTA; for uptake in all other tissues (not tumor, feces): generally
Description: Values are represented as % ID/g±SD. Mice (n=4) bearing subcutaneous SW1222 xenografts were administered huA33-TCO (100 μg) via tail vein injection. After 24 hours the same mice were administered ^64Cu-Tz-Bn-NOTA (0.55-0.75 MBq [15-20 μCi] via tail vein injection (t=0).
Following the synthesis and characterization of the components of the system, in vivo pre-targeted biodistribution and PET imaging experiments were performed. For the pre-targeted biodistribution experiments, mice bearing SW1222 xenografts were administered huA33-TCO (100 μg) via tail vein injection. After a 24 h interval, the mice were administered ^64Cu-Tz-NOTA via tail vein injection. The data reveal rapid accumulation and retention of activity in the tumor, with 4.1±0.3% ID/g at 1 h p.i and 4.2±0.3% ID/g at 12 h p.i. (Table 1). The compound is excreted through the feces, with high levels of activity at 1 h p.i. dropping to 0.9±0.1% ID/g at 12 h, and the amount of uptake in other tissues remains very low, generally less than 0.3% ID/g.
For the pre-targeted biodistribution experiments, mice bearing subcutaneous SW1222 xenografts were administered A33-TCO ([…]) via tail vein injection. […] The data reveal rapid accumulation and retention of radioactivity in the tumor, with 4.1±0.3 percent injected dose per gram (% ID/g) at 1 h after injection, 4.2±0.8% ID/g at 12 h, and 4.0±0.9% ID/g at 24 h (Table 1). The compound is excreted through the feces, with high levels of activity at 1 h after injection dropping to 2.5±0.1% ID/g at 12 h. The amount of uptake in all other tissues remains low, generally less than 1% ID/g.
The specificity of antibodies have made immunoconjugates promising vectors for the delivery of radioisotopes to cancer cells; however, their long pharmacologic half-lives necessitate the use of radioisotopes with long physical half-lives, a combination that leads to high radiation doses to patients. Therefore, the development of targeting modalities that harness the advantages of antibodies without their pharmacokinetic limitations is desirable. To this end, we report the development of a methodology for pre-targeted PET imaging based on the bioorthogonal Diels-Alder click reaction between tetrazine and transcyclooctene. A proof-of-concept system based on the A33 antibody, SW1222 colorectal cancer cells, and ^64Cu was used. The huA33 antibody was covalently modified with transcyclooctene, and a NOTA-modified tetrazine was synthesized and radiolabeled with ^64Cu. Pre-targeted in vivo biodistribution and PET imaging experiments were performed with athymic nude mice bearing A33 antigen-expressing, SW1222 colorectal cancer xenografts. The huA33 antibody was modified with transcyclooctene to produce a conjugate with high immunoreactivity, and the ^64Cu-NOTA-labeled tetrazine ligand was synthesized with greater than 99% purity and a specific activity of 9-10 MBq/mg. For in vivo experiments, mice bearing SW1222 xenografts were injected with transcyclooctene-modified A33; after allowing 24 h for accumulation of the antibody in the tumor, the mice were injected with 64Cu-NOTA-labeled tetrazine for PET imaging and biodistribution experiments. At 12 h after injection, the retention of uptake in the tumor ([…] percent injected dose per gram), coupled with the fecal excretion of excess radioligand, produced images with high tumor-to-background ratios. […] Conclusion: The high quality of the images produced by this pretargeting approach, combined with the ability of the methodology to dramatically reduce non-target radiation doses to patients, marks this system as a strong candidate for clinical translation.

[3] = in vitro stability of the radioligand in human serum at 37° C., HPLC; type: in vitro ADME
Description: as §1

A33 antigen (human) [4] = target: A33 antigen (human) (UniProt Q99795); assay: immunoreactivity of the TCO-modified antibody (assay not described in this sentence)
Chain of UniProt Q99795 (Q99795 22-319): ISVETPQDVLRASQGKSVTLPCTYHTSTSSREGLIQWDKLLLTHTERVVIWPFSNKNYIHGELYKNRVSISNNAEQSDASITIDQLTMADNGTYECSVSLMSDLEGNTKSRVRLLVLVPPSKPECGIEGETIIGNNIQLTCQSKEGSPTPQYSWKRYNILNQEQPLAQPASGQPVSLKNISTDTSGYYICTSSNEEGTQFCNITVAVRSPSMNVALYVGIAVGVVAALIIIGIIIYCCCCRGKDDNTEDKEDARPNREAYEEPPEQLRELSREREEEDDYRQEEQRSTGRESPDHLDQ

A33 antigen (human) [5] = target: A33 antigen (human) (UniProt Q99795); assay: immunoreactivity assay of the radiolabelled antibody (cells not given)
A33 antigen (human) [6] = target: A33 antigen (human) (UniProt Q99795); assay: immunoreactivity assay with A33 antigen-expressing SW1222 human colorectal cancer cells, radiolabelled antibody

radioligand intact in the blood ([1]; 60 min): 77%±3% | radioligand intact in the blood ([1]; 2 h): 47%±2% | radioligand intact in the blood ([1]; 6 h): 22%±3% | Biodistribution: Blood ([2]; 1 h): 3.5 ± 0.6 % ID/g | Biodistribution: Bone ([2]; 1 h): 0.3 ± 0.2 % ID/g | Biodistribution: Feces ([2]; 1 h): 11.9 ± 4.4 % ID/g | Biodistribution: Heart ([2]; 1 h): 1.1 ± 0.2 % ID/g | Biodistribution: Kidney ([2]; 1 h): 1.3 ± 0.1 % ID/g | Biodistribution: Large intestine ([2]; 1 h): 0.5 ± 0.0 % ID/g | Biodistribution: Liver ([2]; 1 h): 2.2 ± 0.3 % ID/g | Biodistribution: Lung ([2]; 1 h): 1.6 ± 0.5 % ID/g | Biodistribution: Muscle ([2]; 1 h): 0.2 ± 0.0 % ID/g | Biodistribution: Skin ([2]; 1 h): 0.3 ± 0.1 % ID/g | Biodistribution: Small intestine ([2]; 1 h): 0.0 ± 0.0 % ID/g | Biodistribution: Spleen ([2]; 1 h): 0.6 ± 0.1 % ID/g | Biodistribution: Stomach ([2]; 1 h): 0.5 ± 0.1 % ID/g | Biodistribution: Tumor ([2]; 1 h): 4.1±0.3 % ID/g | Biodistribution: Tumor ([2]; 1 h, listed as 64Cu-Tz-NOTA): 4.1±0.3 % ID/g | Biodistribution: Blood ([2]; 4 h): 2.6 ± 0.8 % ID/g | Biodistribution: Bone ([2]; 4 h): 0.3 ± 0.2 % ID/g | Biodistribution: Feces ([2]; 4 h): 8.8 ± 3.4 % ID/g | Biodistribution: Heart ([2]; 4 h): 0.9 ± 0.3 % ID/g | Biodistribution: Kidney ([2]; 4 h): 0.9 ± 0.3 % ID/g | Biodistribution: Large intestine ([2]; 4 h): 3.1 ± 1.1 % ID/g | Biodistribution: Liver ([2]; 4 h): 1.3 ± 0.3 % ID/g | Biodistribution: Lung ([2]; 4 h): 1.6 ± 0.4 % ID/g | Biodistribution: Muscle ([2]; 4 h): 0.1 ± 0.0 % ID/g | Biodistribution: Skin ([2]; 4 h): 0.3 ± 0.1 % ID/g | Biodistribution: Small intestine ([2]; 4 h): 0.4 ± 0.1 % ID/g | Biodistribution: Spleen ([2]; 4 h): 0.5 ± 0.2 % ID/g | Biodistribution: Stomach ([2]; 4 h): 0.3 ± 0.1 % ID/g | Biodistribution: Tumor ([2]; 4 h): 4.1 ± 0.6 % ID/g | Biodistribution: Blood ([2]; 12 h): 2.3 ± 0.4 % ID/g | Biodistribution: Bone ([2]; 12 h): 0.4 ± 0.1 % ID/g | Biodistribution: Feces ([2]; 12 h): 2.5±0.1 % ID/g | Biodistribution: Heart ([2]; 12 h): 0.9 ± 0.1 % ID/g | Biodistribution: Kidney ([2]; 12 h): 0.9 ± 0.3 % ID/g | Biodistribution: Large intestine ([2]; 12 h): 2.3 ± 1.0 % ID/g | Biodistribution: Liver ([2]; 12 h): 0.9 ± 0.2 % ID/g | Biodistribution: Lung ([2]; 12 h): 1.1 ± 0.4 % ID/g | Biodistribution: Muscle ([2]; 12 h): 0.2 ± 0.0 % ID/g | Biodistribution: Skin ([2]; 12 h): 0.4 ± 0.1 % ID/g | Biodistribution: Small intestine ([2]; 12 h): 0.8 ± 0.5 % ID/g | Biodistribution: Spleen ([2]; 12 h): 0.6 ± 0.3 % ID/g | Biodistribution: Stomach ([2]; 12 h): 0.5 ± 0.6 % ID/g | Biodistribution: Tumor ([2]; 12 h): 4.2±0.8 % ID/g | Biodistribution: Tumor ([2]; 12 h, listed as 64Cu-NOTA-labeled tetrazine): 4.1±0.3 % ID/g | Biodistribution: Feces ([2]; 12 h, listed as 64Cu-Tz-NOTA): 0.9±0.1 % ID/g | Biodistribution: Tumor ([2]; 12 h, listed as 64Cu-Tz-NOTA): 4.2±0.3 % ID/g | tumor-to-muscle activity concentration ratio ([2]; 12 h, pre-targeting, A33-TCO 24 h before radioligand): 26.6±6.6 | Biodistribution: Blood ([2]; 24 h): 2.1 ± 0.5 % ID/g | Biodistribution: Bone ([2]; 24 h): 0.3 ± 0.1 % ID/g | Biodistribution: Feces ([2]; 24 h): 1.4 ± 0.5 % ID/g | Biodistribution: Heart ([2]; 24 h): 0.8 ± 0.2 % ID/g | Biodistribution: Kidney ([2]; 24 h): 0.7 ± 0.2 % ID/g | Biodistribution: Large intestine ([2]; 24 h): 1.1 ± 0.4 % ID/g | Biodistribution: Liver ([2]; 24 h): 1.1 ± 0.2 % ID/g | Biodistribution: Lung ([2]; 24 h): 1.0 ± 0.3 % ID/g | Biodistribution: Muscle ([2]; 24 h): 0.1 ± 0.0 % ID/g | Biodistribution: Skin ([2]; 24 h): 0.5 ± 0.2 % ID/g | Biodistribution: Small intestine ([2]; 24 h): 0.3 ± 0.0 % ID/g | Biodistribution: Spleen ([2]; 24 h): 0.4 ± 0.1 % ID/g | Biodistribution: Stomach ([2]; 24 h): 0.2 ± 0.0 % ID/g | Biodistribution: Tumor ([2]; 24 h): 4.0±0.9 % ID/g | uptake in all other tissues (not tumor, feces) ([2]; pre-targeting): less than 1 % ID/g | uptake in all other tissues (not tumor, feces) ([2]; pre-targeting, listed as 64Cu-Tz-NOTA): less than 0.3 % ID/g | radioligand intact ([3]; 1 h): 93.0%±2.5% | radioligand intact ([3]; 12 h): 31.6%±6.1%
Compound: O=C([O-])CN1CCN(CC(=O)[O-])CC(Cc2ccc(NC(=O)CCCC(=O)NCc3ccc(-c4nncnn4)cc3)cc2)N(CC(=O)[O-])CC1.[64Cu+2] (stereo not drawn) [^64Cu-Tz-Bn-NOTA]

immunoreactivity (A33 antigen (human) [4]): > 95%
Compound: TCO-modified huA33 (huA33-TCO) (antibody)

immunoreactivity (A33 antigen (human) [5]): > 95% | immunoreactivity (A33 antigen (human) [6]): 95.6%
Compound: ^64Cu-NOTA-A33 (A33-TCO reacted with ^64Cu-Tz-Bn-NOTA) (antibody)

immunoreactivity (A33 antigen (human) [5]): 92%
Compound: ^89Zr-DFO-A33 (antibody)
